Legend:
CD8+CD45RClow Tregs [1] = assay: Peptide stimulation assay (CD8+CD45RClow Treg activation by CD25 and CD69 expression); format: cell-based, human; details: 5-days culture, syngeneic CD8+CD45RClow Tregs and autologous HLA-A2+ pDCs, IL-2 and CpG ODN, peptide 120 μg/ml, versus control peptide
Protocol: Peptide Stimulation Assay
CD8^+ CD45RC^low Treg cells and autologous pDCs from the same healthy HLA-A2^+ donor were co-cultured in serum-free Texmacs medium (Miltenyi Biotec) supplemented with IL-2 (25 U/ml, Proleukin, Novartis), CpG ODN 2006 (0.5 μM) and the different synthesized peptides (120 μg/ml) at a ratio 4:1 of Tregs:pDCs for 5 days. CD8^+CD45RC^low Treg activation was analyzed based on expression of CD69 and CD25 markers. As negative control and in order to normalize the results, a negative peptide was used (ALIAPVHAV). Dapi was used as viability marker. As a positive control, CD8^+ CD45RC^low Tregs were stimulated with anti-CD3 (OKT3, 1 μg/ml) and anti-CD28 mAbs (clone: CD28.2; 1 μg/ml). Results were analyzed using the FACS Canto II cytometer (BD Biosciences) and Flowjo software (Tree Star, Inc. USA, version 10).
For the peptide activation test, a non-parametric Wilcoxon signed-rank test, comparing column median to a hypothetical value of 1.0, was done. Analyses were made with GraphPad Prism 7 software (GraphPad).
Four 16aa peptides were designed from four random human MHC class II alleles based on the sequences of the Du51 peptide (NREEYARFDSDVGEYR) and the overlapping 12-mer peptide Bu31-10 (YLRYDSDVGEYR) both bearing the SDVGEYR motif at C-term end (FIG. 1): Hpep1 (NQEESVRFDSDVGEFR-SEQ ID NO: 1), Hpep2 (NREEYARFDSDVGEFR-SEQ ID NO: 2), Hpep3 (NREEYARFDSDVGVYR-SEQ ID NO: 3) and Hpep4 (NREEYVRFDSDVGEYR-SEQ ID NO: 4). We individually tested these peptides differing at positions 2, 5, 6, 14 or 15 in a 5-days culture assay using and syngeneic CD8^+CD45RC^low Tregs and autologous HLA-A2^+ pDCs from the same individuals in presence of interleukin-2 (IL-2) and CpG oligodeoxynucleotides (or CpG ODN) in serum free Texmacs medium (FIG. 2). […] These three peptides share the conserved SDVGE-X-R (SEQ ID NO: 13) 7aa motif while Hpep3 has in addition a valine (V) in place of the glutamic acid (E) at position 14 of the peptide, probably impacting TCR recognition.

allograft = details: rats treated with the peptide only (WO2015/150492); cited from earlier work
CD8+CD45RClow Tregs [2] = assay: Expansion in vitro of human CD8+CD45RClow Tregs; format: cell-based; details: 14 days culture with autologous APCs, IL-2, IL-15 and CpG ODN, versus day 0
Protocol: Expansion In Vitro of Human CD8^+CD45RC^low Tregs
5×10^5 CD8^+CD45RC^low Tregs and 2×10^6 autologous APCs from HLA-A2^+ healthy donors were seeded in a 24 well plate in Texmacs Medium (Miltenyi Biotec), supplemented with penicillin (100 U/ml), streptomycin (100 μg/ml), rhlL-2 (1000 U/ml, Proleukin, Novartis), rhIL-15 (10 ng/ml, Miltenyi Biotec), CpG (0.5 μM), and the different peptides (120 μg/ml) derived from HLA-II molecule (GenScript). As negative control, a negative irrelevant peptide (ALIAPVHAV) was used. As a positive control, CD8^+CD45RC^low Tregs were stimulated with plate-coated anti-CD3 (clone: OKT3, 1 μg/ml) mAb and soluble anti-CD28 mAb (clone: CD28.2; 1 μg/ml). At day 7, Tregs were counted and re-expanded. Cytokines were freshly added twice a week. Finally, at day 14, cells were used for experiments.
To determine whether CD8^+ CD45RC^low Tregs could be expanded using this MHC-II derived peptide, an expansion protocol was set up using sorted CD8^+CD45RC^low/− Tregs and APCs from the same individual with the Hpep2 peptide in presence of IL-2, IL-15 and CpG ODN and compared to a polyclonal stimulation (anti-CD3/28) in similar conditions (FIG. 4).

CD8+CD45RClow Tregs [3] = assay: Extracellular and intracellular stainings of expanded Tregs (flow cytometry); format: cell-based, human; details: 14 days expansion, Hpep2 versus anti-CD3/28 expanded Tregs
Protocol: Extracellular and Intracellular Stainings
For the analysis of GITR (clone: DT5D3, Miltenyi Biotec), Foxp3 (clone:259D/C7, BD Biosciences), IL-10 (clone: JES3-9D7 , BD Biosciences), IL-34 (clone: IC5265P, R&D), TGFβ1 (clone: TW4-9E7, BD Biosciences) and IFNγ (clone: B27, BD Biosciences), CD8^+CD45RC^low Treg cells were stimulated with PMA (50 ng/ml) and ionomycin (1 μg/ml) for 5 h in presence of Brefeldin A (10 μg/ml) for the last 4 hours in Texmacs medium (Miltenyi Biotec). In order to select viable cells, Fixable Viability Dye eF506 (ThermoFisher Scientific) was used as viability marker. Fc receptors were blocked before staining (BD Biosciences) and cells were permeabilized with Fix/Perm kit (Ebiociences) for intracellular staining Cell phenotype was analyzed by flow cytometry using the LSR II (BD Biosciences, Mountain View, Calif.) and Flowjo software (Tree Star. Inc. USA, version 10).

CD4+CD25- T cells = assay: Suppression assay (proliferation of CFSE-labeled CD4+CD25- Teffs stimulated with allogeneic APCs); format: cell-based, human; details: Tregs expanded 14 days, co-cultured 5 days at 1:1:1 with syngeneic CD4+CD25- T cells and pooled allogeneic APCs; compared to fresh Tregs
Protocol: CFSE-labeled CD4^+ CD25^− Teffs and CD8^+ CD45RC^low Tregs from the same healthy volunteer (HLA-A2^+) were co-cultured with a pool of allogeneic APCs from 3 different healthy donors (HLA-A2^−) in RPMI1640 medium supplemented with 5% human AB serum. Culture was done at 1:1:1 ratio (where 1=5×10^4 cells/well) for 5 days in triplicate in a V-bottom 96 well plate. Proliferation of CD4^+CD25^− responder T cells was analyzed by flow cytometry (FACS Canto II BD Biosciences TM) by gating on CD3^+CD4^+ living cells (DAPI negative) and using Flowjo software (Tree Star, Inc. USA, version 10).

Which “CD25 expression on Tregs” value (CD8+CD45RClow Tregs [1]) does the source give for “NQEESVRFDSDVGEFR (listed as Homo sapiens) [Hpep1, 16aa peptide designed from a human MHC class II allele]” here?
The value was “upregulated”.

What about the “CD69 expression on Tregs” value (CD8+CD45RClow Tregs [1]) of the same sequence?
Its value is “upregulated”.

For “NREEYARFDSDVGEYR [Du51, dominant MHC class II-derived antigen recognized by TCR-biased CD8+ Tregs in rats (WO2015/150492)]”, which “allograft tolerance in recipient rats” value (allograft) is on record?
Its value is “donor-specific allograft tolerance induction”.

Which “CD25 expression on Tregs” value (CD8+CD45RClow Tregs [1]) does the source give for “NREEYVRFDSDVGEYR (listed as Homo sapiens) [Hpep4, 16aa peptide designed from a human MHC class II allele]” here?
Its value is “upregulated”.

What about the “CD69 expression on Tregs” value (CD8+CD45RClow Tregs [1]) of the same sequence?
Its value is “upregulated”.

With “NREEYARFDSDVGEFR (listed as Homo sapiens) [Hpep2, 16aa peptide designed from a human MHC class II allele]” as the sequence, how does the “total Treg fold expansion” value (CD8+CD45RClow Tregs [2]) read?
Its value is 10 fold.

What about the “level of expression of Foxp3, GITR, IL-10, IFNγ and IL-34 in expanded CD8+CD45RClow Tregs” value (CD8+CD45RClow Tregs [3]) of the same sequence?
The value was “no significant differences”.

What about the “CD25 expression on Tregs” value (CD8+CD45RClow Tregs [1]) of the same sequence?
The value was “upregulated”.

What about the “CD69 expression on Tregs” value (CD8+CD45RClow Tregs [1]) of the same sequence?
Its value is “upregulated”.

And the “suppressive activity of expanded CD8+CD45RClow Tregs on an allogeneic immune response” value (CD4+CD25- T cells)?
The value was “efficient at suppressing an allogeneic immune response”.
